Results on 10 compounds are retold here after patent US20220296573A1, “NOVEL COMPOUNDS AND PHARMACEUTICAL COMPOSITIONS THEREOF FOR THE TREATMENT OF INFLAMMATORY DISORDERS” (Galapagos NV, priority 2019, published 2022).

Data set [1] in a line: Thermodynamic solubility. The data set is classed as physicochemical. The conditions noted are these: for solubility thermodynamic at 24 h: 37 °C, thermodynamic from solid. On the procedure:
In a 8 mL glass vial, 1-2 mg of dry matter of compound were added and stirred with the suitable buffers (Fed State Simulated Intestine Fluid, FeSSIF, or Fasted State Simulated Intestine Fluid, FaSSIF, or Fasted State Simulated Gastric Fluid, FaSSGF, or phosphate buffer pH 7.4) for 24 h at r.t. (for the buffer pH 7.4) or 37° C. (for the GI fluids). The concentration of the mixture was 1 mg/mL.
A volume of 1000 μL were sampled, centrifuged for 10 min at 10 000 rpm and 500 μL of the supernatant were filtered on captiva plate. The samples are diluted in duplicates in DMSO (F100 and F10). Then, a final dilution (F100) in 80/20 H2O/MeCN containing the internal standard (warfarin) was used for LCMS-MS analysis.
A standard curve was made starting from a 40,000 ng/mL stock in DMSO, freshly prepared from dry matter. Then, successive concentrations at 15,000, 11,000, 6,000, 2,500, 1,000, 375, 150 and 75 ng/mL in DMSO were prepared.
Three quality control samples were made: one of 10,000, 1,500 and 200 ng/mL in DMSO, also starting from the DMSO working stock solution at 40,000 ng/mL.
The standard curve and quality controls were diluted a F100 in 80/20 H2O/MeCN (with internal standard) and analyzed on LC/MS-MS (API4000 or API5500).
The samples were analyzed on LC-MS with a flow rate of 0.6 mL/min. The mobile phase A was 0.1% formic acid in water and the mobile phase B was 0.1% formic acid in 90% MeCN and 10% of water. The sample was run under positive or negative ion spray on Pursuit C18—5 μm (2.0×20 mm) column, from Agilent.
The ratio analyte/internal standard peaks areas of the standard curve were plotted in a graph and a linear or polynomial of the second order equation was used to calculate the unknown concentrations of the test compound.
Solubility values were reported in μM and g/mL.

In data set [2] the test system is Mouse Hepatocyte. The experiment in a line: Metabolic stability in mouse hepatocytes. Format: in vitro ADME. As to conditions: mouse cryopreserved hepatocytes, 1 μM. As to the method: The aim of this assay is to determine the metabolic stability of the compound in hepatocytes (cryopreserved) of different species. Low hepatocyte stability may result in the formation of unwanted metabolites, high clearance, and therefore is not desirable.
A 10 mM stock solution of test compound in DMSO was first diluted in DMSO to 3 mM, and then in modified Krebs-Henseleit buffer (Sigma, K3753) to 5 μM. This compound dilution was added to a suspension of pooled cryopreserved hepatocytes (BioreclamationIVT) at 37° C. under gentle shaking.
Final reaction conditions were: 1 μM of test compound, 0.03% DMSO, 0.5 million viable hepatocytes/mL, and 75 μL incubation volume.
Testosterone (1 μM) and 7-hydroxycoumarin (1 μM) were used, respectively as phase I and phase II metabolic reaction controls.
After 0, 10, 20, 45, 90, 120 and 180 min of incubation, the reaction was terminated with 225 μL of MeCN:MeOH (2:1) containing 100 ng/mL of diclofenac as analytical internal standard. Samples were mixed, centrifuged and the supernatant analyzed by LC-MS/MS.
The instrument responses (ratios of test compound and internal standard peak areas) were referenced to the zero time point samples (considered as 100%) in order to determine the percentage of compound remaining.
Plots of percentage compound remaining were used to determine the intrinsic clearance in the hepatocyte incubations using the following equations:
Scaled Clint [L/h/kg]=Clint [μL/min/10^6 cells]*#(10) cells/g liver*60*(1/10^6) Scaled Clint unbound [L/h/kg]=Clint [L/h/kg]/Fu,inc where: fu,inc equals hepatocyte binding, derived from microsomal binding (fu,mic) by following equation: […]

For data set [3], the system named is CL097 triggered IFNα release in human whole blood. The experiment in a line: Ex vivo human IFNα release inhibition (whole blood assay). Format: cell-based. As to conditions: CL097 2 μg/mL, 3 h 30 min. An excerpt:
The aim of the assay is to evaluate the activity of compounds of the invention on the activated TLR/IRAK-4 pathway in an ex vivo human whole blood setting. Toll-like receptors (TLRs) are pattern recognition receptors that recognize a wide variety of microbial molecules, called pathogen-associated molecular patterns (PAMPs). Human TLR7 and TLR8 recognize imidazoquinoline compounds (e.g., CL097—CAS n #1026249-18-2) and single stranded RNAs as their natural ligands. Activation of TLRs leads to the production of several cytokines (e.g., IFNα, TNFα, IL-8, IL-6) by the TLR agonist-treated cells, whereas IRAK4 leads to the production of IFNα. Cytokine release is used as readout in this assay and represents a measure for the level of inhibition of the TLR/IRAK-4 pathway by the tested compound. It should be noted that in the context of the complete organism, other sources for these cytokines exist that are not dependent on the TLR/IRAK-4 pathway, such as e.g., macrophages (upon activation of the Fcγ receptor (Yan et al. 2012)) or T cells (upon activation of the T cell receptor (Brehm, Daniels, and Welsh 2005)).
Blood is collected from healthy volunteers into lithium heparin tubes by venipuncture, then gently inverted several times to prevent clotting and incubated for at least 15 min at 37° C. on a rocking mixer shaker. Then, 100 μL of blood is dispensed into polypropylene 96-well microplate and pre-incubated in duplicate with 0.3% DMSO or test compound at different concentrations (from 30 to 0.01 μM, 3-fold dilutions to get 0.3% DMSO at the final) for 15 min at 37° C. After this pre-incubation, blood is triggered with CL097 (2 μg/mL from 1 mg/mL solution in water; InvivoGen, tlr1-c97) for 3 h 30 min at 37° C. Microtubes are centrifuged at 5000×g for 10 min at 4° C. and approximately 40 μL of plasma are collected into a polystyrene 96-well plate. Plasma can be analyzed freshly, within 30 min after triggering, or frozen at −80° C. Finally, the quantification of IFNα and IFNα were performed in the plasma using AlphaLISA Kit for […] according to the manufacturer's instructions and read on the Ensight (PerkinElmer).
A standard curve was created by plotting on log-log the mean absorbance on the y-axis against the concentration on the x-axis and a 4PL was made through the points. For each blood sample, the IFNα concentrations of the samples were determined from the fit.
Data were then expressed as a percentage of inhibition (PIN) for each replicate using the formula:
With mean IFNα with CL097=mean IFNα concentration of replicate samples triggered with CL097; IFNαsample1=IFNα concentration of sample 1; mean IFNα with vehicle=mean IFNα concentration of replicate samples treated with vehicle.
Curve fitting for pIC50 determination were generated using mean PIN±sem. Graphs and pIC50 calculations were derived using Prism 5.03 software (GraphPad).

Where [4] appears, read: Fasted State Simulated Gastric Fluid (FaSSGF), fassgf or other biorelevant, Fasted State Simulated Gastric Fluid, read-out: Tsol FaSSGF.
The mark [5] stands for this setting: Fasted State Simulated Intestine Fluid (FaSSIF), fassif, Fasted State Simulated Intestine Fluid, read-out: Tsol FaSSIF.
The mark [6] stands for this setting: Fasted State Simulated Intestine Fluid, 24 h, 37° C.
The mark [7] stands for this setting: Fed State Simulated Intestine Fluid (FeSSIF), fessif, Fed State Simulated Intestine Fluid, read-out: Tsol FeSSIF.

In brackets after ≈: the same amount, converted by molar mass. Read-outs that look alike come from different tables or passages of the source.

For orientation: IC50 means the midpoint of a concentration-inhibition curve. A high value points to weaker potency in that assay. For the compound `CC(F)(F)c1cccc(C(=O)Nc2cn3cc(C4COCCO4)nc3cc2C(N)=O)n1` (centres unmarked) [Compound 11, 6-(6-(1,1-difluoroethyl)picolinamido)-2-(1,4-dioxan-2-yl)imidazo[1,2-a]pyridine-7-carboxamide], the solubility thermodynamic at 24 h in data set [1] (setting [4]) is 335 µg/mL (≈ 777 µM); in data set [1] (setting [5]), 12.2 µg/mL (≈ 28.3 µM). Moreover, the “Mouse Hepatocyte stability (Perc. remaining at 90 min)” value in data set [2] stood at 80.6 Perc. In data set [3], this compound showed an IC50 of 500 to 1000 nM.
Consider `COc1cc2nc(C3COCCO3)cn2cc1NC(=O)c1cccn(C2CC2)c1=O` (single isomer, unassigned) [Compound 8, 1-cyclopropyl-N-[2-(1,4-dioxan-2-yl)-7-methoxy-imidazo[1,2-a]pyridin-6-yl]-2-oxo-pyridine-3-carboxamide], for which the solubility thermodynamic at 24 h in data set [1] (setting [4]) was 1000 µg/mL (≈ 2440 µM); in data set [1] (setting [7]), 208 µg/mL (≈ 507 µM). Moreover, the “Tsol FaSSIF” value in data set [1] (setting [6]) was 67.4 µg/mL. The IC50 in data set [3] lay in the range of 0.1 to 500 nM.
As to `NC(=O)c1cc2nc(C3COCCO3)cn2cc1NC(=O)c1cccc(C(F)(F)F)n1` (centres unmarked) [Compound 6, 2-(1,4-dioxan-2-yl)-6-[[6-(trifluoromethyl)pyridine-2-carbonyl]amino]imidazo[1,2-a]pyridine-7-carboxamide], in data set [1] (setting [6]), the “Tsol FaSSIF” value is 2.30, 2.30 μg/mL. Also, the IC50 in data set [3] is 1000 to 5000 nM.
In the case of `COc1cc2nc(C3COCCO3)cn2cc1NC(=O)c1cccn(C2CC2)c1=O` (racemic) [Compound 1, 1-cyclopropyl-N-[2-(1,4-dioxan-2-yl)-7-methoxy-imidazo[1,2-a]pyridin-6-yl]-2-oxo-pyridine-3-carboxamide], the values for the solubility thermodynamic at 24 h in data set [1] (setting [4]), in data set [1] (setting [5]) and in data set [1] (setting [7]) were > 1000 µg/mL, 28.2 µg/mL (≈ 68.7 µM) and > 1000 µg/mL, respectively. For the same compound, the “Mouse Hepatocyte stability (Perc. remaining at 90 min)” value in data set [2] is given as 103.95 Perc. The compound further returned an IC50 in data set [3] of 0.1 to 500 nM.
With `COc1cc2nc(C3COCCO3)cn2cc1NC(=O)c1cccn(C2CCC2)c1=O` (centres unmarked) [Compound 5, 1-cyclobutyl-N-[2-(1,4-dioxan-2-yl)-7-methoxy-imidazo[1,2-a]pyridin-6-yl]-2-oxo-pyridine-3-carboxamide], the solubility thermodynamic at 24 h in data set [1] (setting [5]) is 43.9 µg/mL (≈ 103 µM). For the same compound, in data set [3], the IC50 was in the range of 1000 to 5000 nM.
Take `CNC(=O)c1cc2nc(C3COCCO3)cn2cc1NC(=O)c1cccc(C(F)(F)F)n1` (centres unmarked) [Compound 9, 2-(1,4-dioxan-2-yl)-N-methyl-6-(6-(trifluoromethyl)picolinamido)imidazo[1,2-a]pyridine-7-carboxamide]: the solubility thermodynamic at 24 h in data set [1] (setting [5]) is 6.42 µg/mL (≈ 14.3 µM). For the same compound, in data set [2], the “Mouse Hepatocyte stability (Perc. remaining at 90 min)” value worked out at 73.3 Perc. Also, the IC50 in data set [3] fell in the range of 1000 to 5000 nM.
Regarding `COc1cc2nc(C3CCOCC3)cn2cc1NC(=O)c1cccn(C2CC2)c1=O` [Compound 3, (1-cyclopropyl-N-[7-methoxy-2-(oxan-4-yl)imidazo[1,2-a]pyridin-6-yl]-2-oxopyridine-3-carboxamide)], the solubility thermodynamic at 24 h in data set [1] (setting [4]) is 947 µg/mL (≈ 2320 µM); in data set [1] (setting [5]), 1010 µg/mL (≈ 2480 µM). Moreover, in data set [3], the IC50 was in the range of 500 to 1000 nM.
For `COc1cc2nc(C3CCS(=O)(=O)CC3)cn2cc1NC(=O)c1cccn(C2CC2)c1=O` [Compound 23, 1-cyclopropyl-N-(2-(1,1-dioxidotetrahydro-2H-thiopyran-4-yl)-7-methoxyimidazo[1,2-a]pyridin-6-yl)-2-oxo-1,2-dihydropyridine-3-carboxamide], the solubility thermodynamic at 24 h in data set [1] (setting [7]) is 270 µg/mL (≈ 591 µM). The same compound displayed an IC50 in data set [3] of 0.1 to 500 nM.
In the case of `COc1cc2nc(C3CCOCC3)cn2cc1NC(=O)c1cccc(C(F)(F)F)n1` [Compound 2, N-(7-methoxy-2-tetrahydropyran-4-yl-imidazo[1,2-a]pyridin-6-yl)-6-(trifluoromethyl)pyridine-2-carboxamide], the solubility thermodynamic at 24 h in data set [1] (setting [4]) was 1020 µg/mL (≈ 2430 µM); in data set [1] (setting [5]) it was 19.3 µg/mL (≈ 45.9 µM). The IC50 in data set [3] was > 5000 nM.
For the compound `COc1cc2nc(C3COCCO3)cn2cc1NC(=O)c1cccn(C2CC2)c1=O` (single isomer, unassigned) [Compound 7, 1-cyclopropyl-N-[2-(1,4-dioxan-2-yl)-7-methoxy-imidazo[1,2-a]pyridin-6-yl]-2-oxo-pyridine-3-carboxamide], the “Tsol FaSSGF” value in data set [1] (Fasted State Simulated Gastric Fluid, 24 h, 37° C.) is 958 µg/mL. The “Tsol FaSSIF” value in data set [1] (setting [6]) was 31.6 µg/mL. In data set [1] (Fed State Simulated Intestine Fluid, 24 h, 37° C.), the “Tsol FeSSIF” value is 117 µg/mL. The compound also displayed an IC50 in data set [3] of 0.1 to 500 nM.
